In publication PMC11361989, “A simple HPLC–MS/MS method for the determination of polymyxin B in human plasma and its application in the pharmacokinetic study in elderly patients infected with multidrug-resistant Gram-negative bacteria” (Frontiers in Pharmacology, 2024):

How the values were obtained:
[1] = Kidney function indicators (Scr, eGFR) during PB therapy; assay type: in vivo, human; details: elderly patients, 100-mg maintenance dose, after an average of 3.83 days
Source text: This study was approved by the Medical Ethics Committee of Shandong Provincial Hospital (No. 2021–356). Written informed consent was obtained from all patients or their legal representatives. Herein, we included 14 elderly patients (65≤ Age ≤95) who received intravenous PB injections (polymyxin B sulfate for injection, Shanghai First Biochemical Pharmaceutical Co., Ltd.) in the period between April 2021 and January 2023 for treating infections caused by multidrug-resistant Gram-negative bacteria. […] CrCL was calculated using the Cockcroft–Gault equation. […] A total of 112 blood samples were collected and detected, and all of these were stored at −70°C. After analysis by the validated methods, PK parameters were calculated by non-compartmental analysis using Phoenix WinNonlin software 8.3 (Certara, United States).
The recommended AUCss, 24 h range of PB, which is based on the therapeutic window of the drug, is between 50 and 100 μg h/mL ([Tsuji et al., 2019]; [Liu et al., 2023]). […] To avoid the MS/MS crosstalk among the above-mentioned analytes undermining their detection sensitivity and quantitative accuracy, each analyte should be quantified with satisfactory chromatographic separation. […] However, crosstalk still should be measured in a high concentration level. […]

[2] = population PK, elderly patients; ref Wang et al., 2022; cited from earlier work
Source text: Compared to the administration of a fixed dose of PB, the administration of a body-weight-based dose of PB increases the efficacy of the antibiotic ([Sandri et al., 2013]; [Miglis et al., 2018]; [Tsuji et al., 2019]; [Wang et al., 2021a]). However, clinicians usually administer a fixed dose of PB due to challenges in obtaining accurate body weight information about critically ill patients. Moreover, fixed loading and maintenance doses of polymyxin B appear more appropriate than weight-based dosing regimens in patients within the 45–90-kg BW range ([Hanafin et al., 2023]). This study is the fir ...

[3] = Stability of PB1 and PB2 in human plasma under different storage conditions; details: human plasma: 24 h at room temperature (25°C), 24 h at 4°C (post preparative), three freeze–thaw cycles, 85 days at −70°C
Experimental: The stock solutions of the calibrators and quality control (QC) samples should be prepared separately in the same way. The PB stock solution for calibrators and QC samples was prepared in water (1% FA) at 400.48 μg/mL for PB1 and 40.84 μg/mL for PB2. Consequently, working solutions for construction of calibrators and QC were prepared by serially diluting the stock solution with a 1% aqueous solution of FA. The concentrations of the working solutions for calibrators were 10.01, 30.03, 50.05, 100.12, 150.18, and 200.24 μg/mL for PB1 and 1.02, 3.06, 5.10, 10.21, 15.31, and 20.42 μg/mL for PB2. The concentrations of working solutions for QCs were prepared at 20.02 μg/mL (LQC), 90.11 μg/mL (MQC), and 180.22 μg/mL (HQC) for PB1 and 2.04 μg/mL (LQC), 9.18 μg/mL (MQC), and 18.36 μg/mL (HQC) for PB2. The working solution of IS (10.00 μg/mL) was prepared using methanol. All the above solutions were stored at −70°C. The calibrators and QC samples were obtained by spiking 90 μL of blank plasma with 10 μL of working solution at the corresponding concentration. The standard curves were in the range of 1.00–20.02 μg/mL and 0.10–2.04 μg/mL for PB1 and PB2, respectively.
Typically, 100 μL of the plasma sample was mixed with 10 μL IS working solution, and then, 300 μL 0.1% FA in methanol was added to the sample for protein precipitation. The mixture was vortexed for 3 min and centrifuged in an Eppendorf 5415D microcentrifuge (Eppendorf, Hamburg, Germany) at 11,000 g rpm for 10 min. Subsequently, 200 μL of the supernatant was transferred into a clean polypropylene tube and diluted with 150 μL of 0.1% FA in water. The mixture solution was vortexed for 3 min and centrifuged at 11,000 rpm for 10 min using the same centrifuge. Finally, 200 μL of the supernatant was transferred into an injection bottle, and 10 μL was injected into the HPLC–MS/MS for analysis.
The stability of the working solutions of PB1 and PB2 was evaluated. The short-term stability and long-term stability of PB1 and PB2 in human plasma were evaluated under the following conditions: placed at room temperature or 4°C for 24 h, frozen and thawed three times, and stored at −70°C for 85 days. The stability evaluation was conducted for both LQC and HQC concentrations.

[4] = Pharmacokinetic study of intravenous PB in elderly patients infected with multidrug-resistant Gram-negative bacteria; assay type: in vivo, human; details: for AUCss, 24 h: elderly patients, steady state, first-order elimination-based equation, mean ± SD; for Ctrough: human, in vivo
Source text: This study was approved by the Medical Ethics Committee of Shandong Provincial Hospital (No. 2021–356). Written informed consent was obtained from all patients or their legal representatives. Herein, we included 14 elderly patients (65≤ Age ≤95) who received intravenous PB injections (polymyxin B sulfate for injection, Shanghai First Biochemical Pharmaceutical Co., Ltd.) in the period between April 2021 and January 2023 for treating infections caused by multidrug-resistant Gram-negative bacteria. These patients were divided into two groups: in the first group, eight patients received 100 mg loading dose combined with 75 mg maintenance dose q 12 h, and in the other group, six subjects received a 150-mg loading dose and a 100-mg maintenance dose q 12 h. The duration of the intravenous treatment was 1 h. The dosage for all patients was decided by the clinician according to the clinical response. Patients undergoing plasma exchange, continuous renal replacement therapy, or extracorporeal membrane oxygenation were excluded. Clinical and demographic data (age, gender, body weight, pathogens, infection sites, and PB-treatment history) were collected from electronic medical records. Laboratory data, including serum creatinine (Scr), estimated glomerular filtration rate (eGFR), and creatinine clearance (CrCL), were collected on the sampling day. CrCL was calculated using the Cockcroft–Gault equation. On the third day after the administration of the loading dose, blood samples were collected at pre-dose (0 h) and 0.5, 1, 2, 3, 6, 8, and 12 h after the start of administration using EDTA tubes and processed to obtain plasma samples. A total of 112 blood samples were collected and detected, and all of these were stored at −70°C. After analysis by the validated methods, PK parameters were calculated by non-compartmental analysis using Phoenix WinNonlin software 8.3 (Certara, United States).
After validation, the HPLC–MS/MS method was applied to the PK study of PB in elderly patients infected with multidrug-resistant Gram-negative bacteria. A total of 112 blood samples were collected from 14 elderly patients receiving intravenous PB treatment. […] The concentration of PB is the sum of the concentrations of PB1 and PB2 calculated, and it is based on the formula provided by [Liu et al. (2023)]. The individual AUCss, 24 h values were estimated using the first-order elimination-based equation method ([Begg et al., 1995]; [Pai et al., 2014]; [Liu et al., 2023]).

Polymyxin B [PB]
mean Scr value during therapy [1]: 111.82 µmol/L | mean eGFR value during therapy [1]: 66.00 mL/min | typical value of CL [2]: 1.87 L/h | Stability in human plasma (in words) [3]: stable | AUCss, 24 h ([4]; maintenance 75 mg q12h, n = 8): 117.70 ± 37.03 µg·h/mL | AUCss, 24 h ([4]; maintenance 100 mg q12h, n = 6): 152.73 ± 70.09 µg·h/mL | Ctrough ([4]; 75 mg): 2650 ± 1320 ng/mL | Ctrough ([4]; 100 mg): 3400 ± 1870 ng/mL
